Laboratory results reported in ChEMBL document CHEMBL3994662, “In vivo instability of platensimycin and platencin: Synthesis and biological evaluation of urea- and carbamate-platensimycin” (Bioorg Med Chem, 2017).
In brackets after ≈: the same amount, converted by molar mass.

Key:
[1] = Drug uptake in C57Bl/6 mouse muscle at 10 mg/kg, iv administered as single dose measured after 60 mins by LC-MS/MS analysis; type: ADME, organism-based, Muscle tissue; conditions: in vivo, 1 h
[2] = Ratio of drug level in C57Bl/6 mouse lung to plasma at 10 mg/kg, iv administered as single dose measured after 60 mins by LC-MS/MS analysis; type: ADME, organism-based
[3] = Drug metabolism in mouse hepatic microsomes assessed as amide hydrolysis-mediated platensic acid formation at 1 uM up to 60 mins in presence of NADPH by LC-MS/MS analysis; type: ADME, Liver, Microsome; conditions: 1 h
Lung [4] = experiment: In vivo stability in C57Bl/6 mouse lung assessed as compound hydrolysis at 10 mg/kg, iv administered as single dose measured after 60 mins by LC-MS/MS analysis; type: ADME, organism-based; conditions: 1 h
[5] = Ratio of drug level in C57Bl/6 mouse liver to plasma at 10 mg/kg, iv administered as single dose measured after 60 mins by LC-MS/MS analysis; type: ADME, organism-based
[6] = Ratio of drug level in C57Bl/6 mouse kidney to plasma at 10 mg/kg, iv administered as single dose measured after 60 mins by LC-MS/MS analysis; type: ADME, organism-based
[7] = Ratio of drug level in C57Bl/6 mouse urine to plasma at 10 mg/kg, iv administered as single dose measured after 60 mins by LC-MS/MS analysis; type: ADME, organism-based; conditions: in vivo, 1 h
[8] = In vivo stability in C57Bl/6 mouse urine assessed as compound hydrolysis at 10 mg/kg, iv administered as single dose measured after 60 mins by LC-MS/MS analysis; type: ADME, organism-based; conditions: 1 h
[9] = Plasma concentration in C57Bl/6 mouse at 3 mg/kg, iv administered as single dose measured after 2 hrs by LC-MS/MS analysis; type: ADME, organism-based
Plasma [10] = experiment: Drug uptake in C57Bl/6 mouse plasma at 10 mg/kg, iv administered as single dose measured after 60 mins by LC-MS/MS analysis; type: ADME, organism-based; conditions: in vivo, 1 h
[11] = Cmax in C57Bl/6 mouse at 3 mg/kg, iv administered as single dose by LC-MS/MS analysis; type: ADME, organism-based; design: dose 3 mg/kg, route intravenous; conditions: in vivo
[12] = Elimination half life in C57Bl/6 mouse at 10 mg/kg, po administered as single dose via gavage by LC-MS/MS analysis; type: ADME, organism-based; conditions: in vivo, read-out: beta t1/2 (converted)
[13] = Drug metabolism in mouse hepatic microsomes assessed as amide hydrolysis-mediated platensic acid formation at 1 uM up to 60 mins in absence of NADPH by LC-MS/MS analysis; type: ADME, Liver, Microsome; conditions: 1 h
[14] = Intrinsic clearance in mouse hepatic microsomes at 1 uM up to 60 mins by LC-MS/MS analysis; type: ADME, Microsome; conditions: liver microsomes, read-out: CLH
Mus musculus [15] = experiment: AUC (0 to 8 hrs) in C57Bl/6 mouse at 10 mg/kg, po administered as single dose via gavage by LC-MS/MS analysis; type: ADME, organism-based; design: time < 8 hr, dose 10 mg/kg, route oral; conditions: in vivo
Plasma [16] = experiment: In vivo stability in C57Bl/6 mouse plasma assessed as compound hydrolysis at 10 mg/kg, iv administered as single dose measured after 60 mins by LC-MS/MS analysis; type: ADME, organism-based; conditions: 1 h
Liver [17] = experiment: Drug uptake in C57Bl/6 mouse liver at 10 mg/kg, iv administered as single dose measured after 60 mins by LC-MS/MS analysis; type: ADME, organism-based; conditions: in vivo, 1 h
Kidney [18] = experiment: In vivo stability in C57Bl/6 mouse kidney assessed as compound hydrolysis by measuring platensic acid level at 10 mg/kg, iv administered as single dose measured after 60 mins by LC-MS/MS analysis relative to platensimycin; type: ADME, organism-based; conditions: 1 h
Kidney [19] = experiment: In vivo stability in C57Bl/6 mouse kidney assessed as compound hydrolysis at 10 mg/kg, iv administered as single dose measured after 60 mins by LC-MS/MS analysis; type: ADME, organism-based; conditions: 1 h
Kidney [20] = experiment: Drug uptake in C57Bl/6 mouse kidney at 10 mg/kg, iv administered as single dose measured after 60 mins by LC-MS/MS analysis; type: ADME, organism-based; conditions: in vivo, 1 h
Plasma [21] = experiment: In vivo stability in C57Bl/6 mouse plasma assessed as compound hydrolysis by measuring platensic acid level at 10 mg/kg, iv administered as single dose measured after 60 mins by LC-MS/MS analysis relative to platensimycin; type: ADME, organism-based; conditions: 1 h
[22] = Cmax in C57Bl/6 mouse at 10 mg/kg, po administered as single dose via gavage by LC-MS/MS analysis; type: ADME, organism-based; design: dose 10 mg/kg, route oral; conditions: in vivo
[23] = Ratio of drug level in C57Bl/6 mouse adipose tissue to plasma at 10 mg/kg, iv administered as single dose measured after 60 mins by LC-MS/MS analysis; type: ADME, organism-based
[24] = Ratio of drug level in C57Bl/6 mouse muscle to plasma at 10 mg/kg, iv administered as single dose measured after 60 mins by LC-MS/MS analysis; type: ADME, organism-based, Muscle tissue/plasma
Liver [25] = experiment: In vivo stability in C57Bl/6 mouse liver assessed as compound hydrolysis at 10 mg/kg, iv administered as single dose measured after 60 mins by LC-MS/MS analysis; type: ADME, organism-based; conditions: 1 h
[26] = Elimination half life in C57Bl/6 mouse at 3 mg/kg, iv administered as single dose by LC-MS/MS analysis; type: ADME, organism-based; conditions: in vivo, read-out: beta t1/2 (converted)
[27] = Drug metabolism in mouse hepatic microsomes assessed as glucuronidation of carboxylic acid at 1 uM up to 60 mins in absence of NADPH by LC-MS/MS analysis; type: ADME, Liver, Microsome; conditions: 1 h
[28] = Drug uptake in C57Bl/6 mouse adipose tissue at 10 mg/kg, iv administered as single dose measured after 60 mins by LC-MS/MS analysis; type: ADME, organism-based; conditions: in vivo, 1 h
Lung [29] = experiment: Drug uptake in C57Bl/6 mouse lung at 10 mg/kg, iv administered as single dose measured after 60 mins by LC-MS/MS analysis; type: ADME, organism-based; conditions: in vivo, 1 h
[30] = Volume of distribution in C57Bl/6 mouse at 3 mg/kg, iv administered as single dose by LC-MS/MS analysis; type: ADME, organism-based; conditions: in vivo
[31] = Observed clearance in C57Bl/6 mouse at 3 mg/kg, iv administered as single dose by LC-MS/MS analysis; type: ADME, organism-based; conditions: in vivo
[32] = Drug level in C57Bl/6 mouse urine at 10 mg/kg, iv administered as single dose measured after 60 mins by LC-MS/MS analysis; type: ADME, organism-based; conditions: mouse, in vivo, 1 h
Micrococcus luteus = experiment: Antibacterial activity against Micrococcus luteus ATCC 9431 after 18 hrs by broth dilution method; type: functional; conditions: ATCC 9431, 18 h
[33] = Apparent permeability by PAMPA; type: physicochemical
Liver [34] = experiment: In vivo stability in C57Bl/6 mouse liver assessed as compound hydrolysis by measuring platensic acid level at 10 mg/kg, iv administered as single dose measured after 60 mins by LC-MS/MS analysis relative to platensimycin; type: ADME, organism-based; conditions: 1 h
Brain [35] = experiment: Drug uptake in C57Bl/6 mouse brain at 10 mg/kg, iv administered as single dose measured after 60 mins by LC-MS/MS analysis; type: ADME, organism-based; conditions: in vivo, 1 h
Brain [36] = experiment: In vivo stability in C57Bl/6 mouse brain assessed as compound hydrolysis at 10 mg/kg, iv administered as single dose measured after 60 mins by LC-MS/MS analysis; type: ADME, organism-based; conditions: 1 h
[37] = In vivo stability in C57Bl/6 mouse urine assessed as compound hydrolysis by measuring platensic acid level at 10 mg/kg, iv administered as single dose measured after 60 mins by LC-MS/MS analysis relative to platensimycin; type: ADME, organism-based; conditions: 1 h
[38] = In vivo stability in C57Bl/6 mouse muscle assessed as compound hydrolysis at 10 mg/kg, iv administered as single dose measured after 60 mins by LC-MS/MS analysis; type: ADME, organism-based, Muscle tissue; conditions: 1 h
[39] = Drug metabolism in mouse hepatic microsomes assessed as hydroxylation at 1 uM up to 60 mins in absence of NADPH by LC-MS/MS analysis; type: ADME, Liver, Microsome; conditions: 1 h
[40] = In vivo stability in C57Bl/6 mouse adipose tissue assessed as compound hydrolysis at 10 mg/kg, iv administered as single dose measured after 60 mins by LC-MS/MS analysis; type: ADME, organism-based; conditions: 1 h
Staphylococcus aureus = experiment: Antibacterial activity against Staphylococcus aureus ATCC 25923 after 18 hrs by broth dilution method; type: functional; conditions: ATCC 25923, 18 h
[41] = Oral bioavailability in C57Bl/6 mouse at 10 mg/kg administered as single dose via gavage by LC-MS/MS analysis; type: ADME, organism-based; conditions: in vivo
Mus musculus [42] = experiment: AUC (0 to 8 hrs) in C57Bl/6 mouse at 3 mg/kg, iv administered as single dose by LC-MS/MS analysis; type: ADME, organism-based; design: dose 3 mg/kg, time < 8 hr, route intravenous; conditions: in vivo

SMILES: C[C@]12C[C@@]34C=CC(=O)[C@@](C)(CCC(=O)Nc5c(O)ccc(C(=O)O)c5O)[C@@H]3[C@H](C[C@@H]1C4)O2
- Drug uptake [1]: Active
- Kp at 1 h [2]: 0.5
- Drug metabolism [3]: Metabolite_Detected
- Stability (Lung [4]): Stable
- Kp at 1 h [5]: 6.2
- Kp at 1 h [6]: 0.5
- Ratio [7]: 3790
- Stability [8]: Unstable
- concentration at 2 h [9]: 10 nM
- Drug uptake (Plasma [10]): Active
- Cmax [11]: 20000 nM
- half-life [12]: 3.2 h
- Drug metabolism [13]: Metabolite_Detected
- microsomal CLint at 1 µM [14]: 13.6 µL/min/mg
- AUC (Mus musculus [15]): 1.5 µM·h
- Stability (Plasma [16]): Unstable
- Drug uptake (Liver [17]): Active
- fold change (FC) (Kidney [18]): 0.2
- Stability (Kidney [19]): Unstable
- Drug uptake (Kidney [20]): Active
- fold change (FC) (Plasma [21]): 0.1
- Cmax [22]: 2100 nM
- Kp at 1 h [23]: 0.1
- Kp at 1 h [24]: 0.1
- Stability (Liver [25]): Unstable
- half-life [26]: 3.5 h
- Drug metabolism [27]: Metabolite_Detected
- Drug uptake [28]: Active
- Drug uptake (Lung [29]): Active
- Vd [30]: 0.9 L/kg
- clearance [31]: 16 mL/min/kg
- Drug uptake [32]: Active
- MIC (Micrococcus luteus): 0.5 µg/mL (≈ 1.13 µM)
- Papp [33]: 1.3 ×10⁻⁷ cm/s
- fold change (FC) (Liver [34]): 0.04
- Drug uptake (Brain [35]): Not Active
- Stability (Brain [36]): Stable
- fold change (FC) [37]: 0.0005
- Stability [38]: Stable
- Drug metabolism [39]: Metabolite_Detected
- Stability [40]: Stable
- MIC (Staphylococcus aureus): 0.5 µg/mL (≈ 1.13 µM)
- bioavailability [41]: 4.4%
- AUC (Mus musculus [42]): 10 µM·h
